Results published in paper PMC8151276, “An Integrated Approach toward NanoBRET Tracers for Analysis of GPCR Ligand Engagement” (Molecules, 2021).

What was measured:
[1] = target: T1, GNRHR (Homo sapiens, UniProt P30968); assay: NanoBRET screen HiBiT-GNRHR in HEK293; type: binding
T1 construct: purchased Promega (in-house HiBiT-GPCR construct library, NanoBRET)
T1 sequence (P30968 1-328): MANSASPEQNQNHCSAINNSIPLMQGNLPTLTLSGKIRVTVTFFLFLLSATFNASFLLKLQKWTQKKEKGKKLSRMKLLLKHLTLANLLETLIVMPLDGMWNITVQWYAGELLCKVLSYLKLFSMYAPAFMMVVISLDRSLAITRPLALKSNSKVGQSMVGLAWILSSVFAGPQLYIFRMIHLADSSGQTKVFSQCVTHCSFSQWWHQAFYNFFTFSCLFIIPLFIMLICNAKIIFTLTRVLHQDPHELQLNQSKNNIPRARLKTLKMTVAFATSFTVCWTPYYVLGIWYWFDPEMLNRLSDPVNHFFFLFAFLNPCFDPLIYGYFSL
Procedure: (§1) Each tracer candidate was screened across the entire library of HiBiT-GPCR constructs using NanoBRET as the detection modality. As depicted in Figure 4A, the specificity of interactions was evaluated through decrease in BRET due to competitive displacement of a bound tracer by excess parental compound. Each tracer was analyzed for binding to each HiBiT-GPCR fusion in the absence and in the presence of competing parental compound. Briefly, HEK293 cells were transfected with HiBiT-GPCR constructs diluted into promoterless DNA to reduce expression and maximize translocation to the cell surface. Each tracer candidate was then screened at concentrations of 1 μM and 0.1 μM across cells expressing these fusions. Cells were treated for 1.5 h with tracer either alone or in the presence of 20 μM competing parental compound (i.e., control). BRET was measured upon addition of purified LgBiT and subsequent complementation with HiBiT genetically fused to a GPCR. The specificity of interactions was assessed through a decrease in BRET signal due to competitive displacement of the bound tracer. To further gauge the robustness of these interactions, the fold response over the control (i.e., BRETtracer/BRETcontrol) was calculated. We chose a 1.5-fold response, which translates to ≥7-fold signal over noise as the minimal threshold required to score an interaction as positive. […]. Below we highlight the screening results obtained for our exemplary fluorescent tracers based on Clozapine, Amitriptyline and AZD1283.
(§2) HiBiT-GPCR DNA constructs were diluted in 10 mM Tris pH 8 to a final concentration of 0.01 μg/μL, arrayed in 96-well plates and stored at −20 °C. For transfection, HEK293 cells were suspended in Opti-MEM (without phenol red) supplemented with 2% fetal bovine serum (Seradigm) and 100 units/mL penicillin–streptomycin (Gibco) at a final concentration of 220,000 cells/mL and dispensed into white 96-well plates at 90 μL/well. Subsequent transfections and screens were carried using an Agilent Bravo Automated Liquid Handling Platform. First, the 96-well HiBiT DNA arrays were diluted 25-fold in Opti-MEM (without serum or phenol red) to a final concentration of 0.0004 μg/μL and 20 μL of the diluted DNAs were transferred into new 96-well plates. Next, promoterless carrier DNA (1 μg/μL) was diluted 25-fold (0.04 μg/μL) and then dispensed into the diluted arrays at 20 μL/well. Following brief mixing, Viafect transfection reagent (Promega) diluted 16-fold into Opti-MEM was dispensed into the plates at 40 μL/well. After mixing by pipetting, plates were incubated for 10 min on the pipetting station deck. The DNA-transfection reagent complexes were then added to plates containing cells. To facilitate the screen, 10 μL of DNA-transfection reagent complexes were added in duplicates to the top 4 and bottom 4 rows, resulting in two identical 48-well arrays per plate. Plates with transfected cells were incubated for 18–20 h at 37 °C/5% CO2. A screen of each tracer across the entire library using two different concentrations requires duplicate plates of transfected cells. Depending on the number of tracers being screened, transfections can be scaled up using the same ratios. The next day, for each tracer, four 20× screening solutions in tracer dilution buffer (Promega) were prepared: two duplicates at final concentration of 20 μM and two duplicates at a final concentration of 2 μM. A competing unmodified compound was added to one of each duplicate at a final concentration of 400 μM. The four resulting solutions were diluted 4-fold in Opti-MEM without serum or phenol red to generate 5× solutions (5 µM and 0.5 µM tracer +/− 100 μM competing compound). To screen the library, a BioTek MultiFlo FX liquid dispenser was used to dispense 22.5 µL of tracer solution to the top 4 rows and 22.5 µL tracer + competing compound solution to the 4 bottom rows. Plates were briefly mixed on an orbital shaker and incubated for 1.5 h at room temperature. […]

[2] = target: T2, CCR4 (Homo sapiens, UniProt P51679); assay: NanoBRET screen HiBiT-CCR4 in HEK293; type: binding
T2 construct: purchased Promega (in-house HiBiT-GPCR construct library, NanoBRET)
T2 sequence (P51679 1-360): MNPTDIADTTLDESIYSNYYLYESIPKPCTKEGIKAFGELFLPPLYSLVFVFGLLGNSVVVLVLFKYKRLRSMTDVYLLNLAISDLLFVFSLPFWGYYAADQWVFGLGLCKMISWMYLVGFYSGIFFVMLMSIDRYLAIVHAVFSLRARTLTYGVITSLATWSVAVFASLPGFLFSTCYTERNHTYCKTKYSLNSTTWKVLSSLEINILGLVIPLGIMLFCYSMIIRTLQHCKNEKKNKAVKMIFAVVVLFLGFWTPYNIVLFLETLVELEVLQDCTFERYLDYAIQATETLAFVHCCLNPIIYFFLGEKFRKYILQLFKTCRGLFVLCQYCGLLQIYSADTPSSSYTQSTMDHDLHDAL
Procedure: as §1, §2

[3] = tracer at 0.1μM, listed as amitriptyline-b-2-NB590

Row | SMILES | NanoBRET Fold Response ([1]; GNRHR, tracer 0.1μM) | NanoBRET Fold Response ([1]; GNRHR, tracer 1μM) | NanoBRET Fold Response ([2]; CCR4, tracer 0.1μM) | NanoBRET Fold Response ([2]; CCR4, tracer 1μM) | NanoBRET Fold Response ([1]; GNRHR, 0.1μM tracer) | NanoBRET Fold Response ([1]; GNRHR, 1μM tracer) | NanoBRET Fold Response ([2]; CCR4, 0.1μM tracer) | NanoBRET Fold Response ([2]; CCR4, 1μM tracer) | further results
1 | Cc1cc2c(s1)Nc1ccccc1N=C2N1CCN(CCCNC(=O)CCOCCOCCOCCOCCNC(=O)CCc2ccc3n2[B-](F)(F)[N+]2=C(c4ccc[nH]4)C=CC2=C3)CC1 [Olanzapine-a-2-NB590] | 1.02 | 1.04 | 1.01 | 0.92 | – | – | – | – | –
2 | CN(C)CCC=C1c2ccccc2CCc2ccc(C(=O)NCCNC(=O)CCOCCOCCOCCOCCNC(=O)CCc3ccc4n3[B-](F)(F)[N+]3=C(c5ccc[nH]5)C=CC3=C4)cc21 [Amitriptyline-b-2-NB590] | – | – | – | – | – | – | – | – | NanoBRET Fold Response [1, 3]: 1.21; NanoBRET Fold Response ([1]; tracer at 1μM, listed as amitriptyline-b-2-NB590): 0.91; NanoBRET Fold Response [2, 3]: 1.02; NanoBRET Fold Response ([2]; tracer at 1μM): 0.95
3 | O=C(CCOCCOCCOCCOCCNC(=O)CCc1ccc2n1[B-](F)(F)[N+]1=C(c3ccc[nH]3)C=CC1=C2)NCCCN1CCN(C2=Nc3cc(Cl)ccc3Nc3ccccc32)CC1 [Clozapine-a-2-NB590] | – | – | – | – | 1.02 | 1.24 | 1.05 | 0.85 | –
4 | CN1CCN(C2=Nc3cc(Cl)ccc3Nc3ccc(CNC(=O)CCOCCOCCOCCOCCNC(=O)CCc4ccc5n4[B-](F)(F)[N+]4=C(c6ccc[nH]6)C=CC4=C5)cc32)CC1 [Clozapine-b-2-NB590] | – | – | – | – | 1.06 | 1.02 | 1.04 | 0.96 | –
5 | Cc1nc2n(c(=O)c1CCN1CCC(c3noc4cc(F)ccc34)CC1)CCCC2OC(=O)NCCOCCOCCOCCOCCNC(=O)CCc1ccc2n1[B-](F)(F)[N+]1=C(c3ccc[nH]3)C=CC1=C2 (centres unmarked) [Risperidone-2-NB590] | 0.88 | 0.97 | 1.01 | 1.22 | – | – | – | – | –
